Assays:
[1] = test system: Male Brown Norway rats; assay: Antigen-induced pulmonary inflammation in a rat asthma model (eosinophils and Th2 cytokines in BALF); assay type: in vivo; details: BALF 48 hours after challenge
Procedure: Rats were sensitized and challenged to produce allergic airway inflammation in a similar manner to that described by Underwood et al (British Journal of Pharmacology 2002; 137: 263-275, 2002). Male Brown Norway rats were sensitized subcutaneously with ovalbumin (OVA) and aluminum hydroxide on day 0, and challenged with aerosolized OVA solution on day 14. The test compound was administered twice intratracheally 24 hours before and 24 hours after the OVA-challenge and bronchoalveolar lavage fluid (BALF) was collected 48 hours after the OVA-challenge. Then eosinophils and Th2 cytokines (IL-5 and IL-13) in the BALF were measured to evaluate efficacy of the test compounds of this invention.

[2] = target: T1, human TLR7 (Homo sapiens, UniProt Q9NYK1); assay: Human TLR7 Assay (SEAP reporter in HEK293 cells); assay type: cell-based; details: HEK293 cell line expressing human TLR7 and pNiFty2-SEAP reporter, overnight incubation at 37° C., 0.1% DMSO; read-out: hTLR7 EC50;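 further: Read-out is secreted alkaline phosphatase made under an NFkB/ELAM-1 composite promoter, reporting TLR7-triggered NFkB activation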
T1 construct: expressed in transfected cells; host or cells: HEK293 cell line stably expressing the pNiFty2-SEAP reporter plasmid; TLR7 in pUNO vector, blasticidin selection
T1 sequence (Q9NYK1 27-1049): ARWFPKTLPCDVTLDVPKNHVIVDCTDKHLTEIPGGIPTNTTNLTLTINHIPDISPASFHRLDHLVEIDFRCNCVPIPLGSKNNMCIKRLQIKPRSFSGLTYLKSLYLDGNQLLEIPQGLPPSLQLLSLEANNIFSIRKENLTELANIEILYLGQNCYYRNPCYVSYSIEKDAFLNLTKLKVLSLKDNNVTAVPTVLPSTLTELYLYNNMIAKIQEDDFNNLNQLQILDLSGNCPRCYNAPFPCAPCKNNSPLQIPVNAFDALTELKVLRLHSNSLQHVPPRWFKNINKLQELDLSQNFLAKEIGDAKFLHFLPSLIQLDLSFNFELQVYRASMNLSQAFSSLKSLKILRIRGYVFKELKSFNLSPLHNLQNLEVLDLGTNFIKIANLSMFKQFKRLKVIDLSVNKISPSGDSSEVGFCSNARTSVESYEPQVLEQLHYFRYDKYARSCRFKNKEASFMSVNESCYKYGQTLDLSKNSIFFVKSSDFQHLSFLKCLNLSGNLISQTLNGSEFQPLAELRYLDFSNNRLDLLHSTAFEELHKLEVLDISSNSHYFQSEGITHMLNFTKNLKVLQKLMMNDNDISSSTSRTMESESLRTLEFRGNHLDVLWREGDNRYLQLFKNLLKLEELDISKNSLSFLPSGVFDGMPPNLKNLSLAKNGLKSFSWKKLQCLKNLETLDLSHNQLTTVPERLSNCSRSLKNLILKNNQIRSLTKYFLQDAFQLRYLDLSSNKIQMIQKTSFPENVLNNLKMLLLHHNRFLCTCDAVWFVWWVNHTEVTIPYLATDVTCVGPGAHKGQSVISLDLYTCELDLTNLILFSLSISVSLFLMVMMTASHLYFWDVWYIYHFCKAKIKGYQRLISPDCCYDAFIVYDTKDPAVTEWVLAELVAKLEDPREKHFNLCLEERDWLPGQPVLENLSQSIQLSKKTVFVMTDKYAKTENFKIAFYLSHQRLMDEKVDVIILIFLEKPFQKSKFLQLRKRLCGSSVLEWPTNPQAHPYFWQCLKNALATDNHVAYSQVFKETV
Excerpt: The most common variant sequence of human TLR7 (represented by the EMBL sequence AF240467) was cloned into the mammalian cell expression vector pUNO and transfected into a HEK293 cell line already stably expressing the pNiFty2-SEAP reporter plasmid; integration of the reporter gene was maintained by selection with the antibiotic zeocin. Transfectants with stable TLR7 expression were selected using the antibiotic blasticidin. In this reporter cell-line, expression of secreted alkaline phosphatase (SEAP) is controlled by an NFkB/ELAM-1 composite promoter comprising five NFkB sites combined with the proximal ELAM-1 promoter. TLR signaling leads to the translocation of NFkB and activation of the promoter results in expression of the SEAP gene. TLR7-specific activation was assessed by determining the level of SEAP produced following overnight incubation of the cells at 37° C. with the standard compound in the presence of 0.1% (v/v) dimethylsulfoxide (DMSO). Concentration dependent induction of SEAP production by compounds was expressed as the concentration of compound which produced half of the maximal level of SEAP induction for that compound (EC50).

[3] = 0.1 mg/kg intratracheally 24 hours before and 24 hours after OVA-challenge
[4] = 1.0 mg/kg intratracheally 24 hours before and 24 hours after OVA-challenge

Compound	EC50 [2] [nM]	other results
CCCCc1nc2c(N)nc3ccccc3c2n1CCCN(Cc1cccc(OCC(=O)OC)c1)C(=O)CN(C)C [Example 9, Methyl (3-{[[3-(4-amino-2-butyl-1H-imidazo[4,5-c]quinolin-1-yl)propyl](N,N-dimethylglycyl)amino]methyl}phenoxy)acetate]	–	Eosinophiles in BALF, inhibition (%) to OVA-Challenge control [1, 3]: 53%; IL-5 in BALF, inhibition (%) to OVA-Challenge control [1, 3]: 66%; IL-13 in BALF, inhibition (%) to OVA-Challenge control [1, 3]: 89%; Eosinophiles in BALF, inhibition (%) to OVA-Challenge control [1, 4]: 77%; IL-5 in BALF, inhibition (%) to OVA-Challenge control [1, 4]: 72%; IL-13 in BALF, inhibition (%) to OVA-Challenge control [1, 4]: 85%
CCCCOC(=O)COc1cccc(CN(CCCn2c(CCOC)nc3c(N)nc4ccccc4c32)C(=O)CN(CC)CC)c1 [Example 83, Butyl 2-{3-[(N-{3-[4-amino-2-(2-methoxyethyl)-1H-imidazo[4,5-c]quinolin-1-yl]propyl}-2-{diethylamino}acetamido)methyl]phenoxy}acetate]	61.3	–
CCN(CC)CC(=O)N(CCCn1c(CCOC)nc2c(N)nc3ccccc3c21)Cc1ccccc1OCC(=O)OC [Example 40, Methyl 2-{2-[(N-{3-[4-amino-2-(2-methoxyethyl)-1H-imidazo[4,5-c]quinolin-1-yl]propyl}-2-(diethylamino)acetamido)methyl]phenoxy}acetate]	243	–
CCOC(=O)COc1ccccc1CN(CCCn1c(CCOC)nc2c(N)nc3ccccc3c21)C(=O)CN(CC)CC [Example 41, Ethyl 2-{2-[(N-{3-[4-amino-2-(2-methoxyethyl)-1H-imidazo[4,5-c]quinolin-1-yl]propyl}-2-(diethylamino)acetamido)methyl]phenoxy}acetate]	137	–
CCN(CC)CC(=O)N(CCCn1c(CCOC)nc2c(N)nc3ccccc3c21)Cc1cccc(OCC(=O)OC2CCC2)c1 [Example 81, Cyclobutyl 2-{3-[(N-{3-[4-amino-2-(2-methoxyethyl)-1H-imidazo[4,5-c]quinolin-1-yl]propyl}-2-{diethylamino}acetamido)methyl]phenoxy}acetate]	56.1	–
CCOC(=O)COc1cccc(CN(CCCn2c(CCOC)nc3c(N)nc4ccccc4c32)C(=O)CN2CCCC2)c1 [Example 31, Ethyl 2-{3-[(N-{3-[4-amino-2-(2-methoxyethyl)-1H-imidazo[4,5-c]quinolin-1-yl]propyl}-2-(pyrrolidin-1-yl)acetamido)methyl]phenoxy}acetate]	150	–
COCCc1nc2c(N)nc3ccccc3c2n1CCCCN(CCCN1CCOCC1)Cc1cccc(OC(C)(C)C(=O)OC)c1 [Example 137, Methyl 2-{3-[({4-[4-amino-2-(2-methoxyethyl)-1H-imidazo[4,5-c]quinolin-1-yl]butyl}{3-morpholinopropyl}amino)methyl]phenoxy}-2-methylpropanoate]	87.7	–
CCCCc1nc2c(N)nc3ccccc3c2n1CCCN(Cc1ccc(OCC(=O)OC)cc1)C(=O)CN(C)C [Example 5, Methyl (4-{[[3-(4-amino-2-butyl-1H-imidazo[4,5-c]quinolin-1-yl)propyl](N,N-dimethylglycyl)amino]methyl}phenoxy)acetate]	247	–
CCOC(=O)COc1cc(CN(CCCn2c(CCOC)nc3c(N)nc4ccccc4c32)C(=O)CN(CC)CC)ccc1C [Example 66, Ethyl 2-{5-[(N-{3-[4-amino-2-(2-methoxyethyl)-1H-imidazo[4,5-c]quinolin-1-yl]propyl}-2-{diethylamino}acetamido)methyl]-2-methylphenoxy}acetate]	27.3	–
CCOC(=O)COc1cccc(CN(CCCCn2c(CCOC)nc3c(N)nc4ccccc4c32)C(=O)NCCN(C)C)c1 [Example 127, Ethyl 2-{3-[(1-{4-[4-amino-2-(2-methoxyethyl)-1H-imidazo[4,5-c]quinolin-1-yl]butyl}-3-{2-(dimethylamino)ethyl}ureido)methyl]phenoxy}acetate]	42.9	–
COCCc1nc2c(N)nc3ccccc3c2n1CCCCN(Cc1ccc(F)c(OCC(=O)OC(C)C)c1)C(=O)NCCN1CCCCC1 [Example 139, Isopropyl 2-{5-[(1-{4-[4-amino-2-(2-methoxyethyl)-1H-imidazo[4,5-c]quinolin-1-yl]butyl}-3-{2-(piperidin-1-yl)ethyl}ureido)methyl]-2-fluorophenoxy}acetate]	57	–
CCCCc1nc2c(N)nc3ccccc3c2n1CCCN(Cc1ccc(OCC(=O)OC)cc1)C(=O)CN1CCN(CCOC)CC1 [Example 8, Methyl {4-[([3-(4-amino-2-butyl-1H-imidazo[4,5-c]quinolin-1-yl)propyl]{[4-(2-methoxyethyl)piperazin-1-yl]acetyl}amino)methyl]phenoxy}acetate]	904	–
CCN(CC)CC(=O)N(CCn1c(CCOC)nc2c(N)nc3ccccc3c21)Cc1cccc(OCC(=O)OC)c1 [Example 102, Methyl 2-{3-[(N-{2-[4-amino-2-(2-methoxyethyl)-1H-imidazo[4,5-c]quinolin-1-yl]ethyl}-2-{diethylamino}acetamido)methyl]phenoxy}acetate]	> 10000	–
CCOCc1nc2c(N)nc3ccccc3c2n1CCCN(Cc1cccc(OC(C)(C)C(=O)OC)c1)C(=O)CN1CCCC1 [Example 171, Methyl 2-{3-[(N-{3-[4-amino-2-(ethoxymethyl)-1H-imidazo[4,5-c]quinolin-1-yl]propyl}-2-{pyrrolidin-1-yl}acetamido)methyl]phenoxy}-2-methylpropanoate]	560	–
CCOC(=O)C(C)(C)Oc1cccc(CN(CCCn2c(CCOC)nc3c(N)nc4ccccc4c32)C(=O)CN(C)CC)c1 [Example 150, Ethyl 2-{3-[(N-{3-[4-amino-2-(2-methoxyethyl)-1H-imidazo[4,5-c]quinolin-1-yl]propyl}-2-{ethyl(methyl)amino}acetamido)methyl]phenoxy}-2-methylpropanoate]	84.6	–
CCN(CC)CC(=O)N(CCCn1c(CCOC)nc2c(N)nc3ccccc3c21)Cc1cccc(OCC(=O)OCCO)c1 [Example 30, 2-Hydroxyethyl 2-{3-[(N-{3-[4-amino-2-(2-methoxyethyl)-1H-imidazo[4,5-c]quinolin-1-yl]propyl}-2-(diethylamino)acetamido)methyl]phenoxy}acetate]	1460	–
CCOC(=O)COc1cc(CN(CCCCn2c(CCOC)nc3c(N)nc4ccccc4c32)C(=O)NCCN2CCCCC2)ccc1F [Example 140, Ethyl 2-{5-[(1-{4-[4-amino-2-(2-methoxyethyl)-1H-imidazo[4,5-c]quinolin-1-yl]butyl}-3-{2-(piperidin-1-yl)ethyl}ureido)methyl]-2-fluorophenoxy}acetate]	79.1	–
COCCc1nc2c(N)nc3ccccc3c2n1CCCN(Cc1cccc(OCC(=O)OC(C)C)c1)C(=O)CN1CCOCC1 [Example 112, Isopropyl 2-{3-[(N-{3-[4-amino-2-(2-methoxyethyl)-1H-imidazo[4,5-c]quinolin-1-yl]propyl}-2-morpholinoacetamido)methyl]phenoxy}acetate]	756	–
CCCCc1nc2c(N)nc3ccccc3c2n1CCCN(Cc1cccc(OCC(=O)OC)c1)C(=O)CN1CCCC1 [Example 13, Methyl (3-{[[3-(4-amino-2-butyl-1H-imidazo[4,5-c]quinolin-1-yl)propyl](pyrrolidin-1-ylacetyl)amino]methyl}phenoxy)acetate]	136	–
CCOC(=O)C(C)(C)Oc1cccc(CN(CCCn2c(CCOC)nc3c(N)nc4ccccc4c32)C(=O)CN(C)C)c1 [Example 148, Ethyl 2-{3-[(N-{3-[4-amino-2-(2-methoxyethyl)-1H-imidazo[4,5-c]quinolin-1-yl]propyl}-2-{dimethylamino}acetamido)methyl]phenoxy}-2-methylpropanoate]	115	–
